The values below come from ChEMBL document CHEMBL5096212, “Development of a water-soluble ryanodine receptor 1 inhibitor” (Bioorg Med Chem, 2022).

Converted amounts (≈) assume the structure as drawn.

A short description of data set [1]: Inhibition of RyR1 R2163C mutant (unknown origin) expressed in HEK293 cells measured every 10s for 300s by R-CEPIA1er based fluorescence analysis. The data set is classed as cell-based, Homo sapiens.
Data set [2] can be described thus: Solubility of the compound in saline measured after 48 hrs by HPLC analysis. The data set is classed as physicochemical. Particulars: buffer.
A short description of data set [3]: Solubility of the compound in 30% EtOH/PBS measured after 48 hrs by HPLC analysis. Format: physicochemical.

As for `CCCCCCCCn1cc(C(=O)O)c(=O)c2c(OC)nccc21`, the EC50 – broadly, the midpoint of the concentration-response curve – in data set [1] was found to be 1700 nM. This lies in the single-digit micromolar range.

In the case of `CCCCCCCCn1cc(C(=O)[O-])c(=O)c2cc3c(cc21)OCO3.[Na+]`, the solubility (usually how much of the substance goes into solution per volume) in data set [2] was found to be 0.84 µg/mL.

`CCCCCCCCn1cc(C(=O)O)c(=O)c2cc3c(cc21)OCO3` yielded a solubility at 48 h in data set [3] of 4.7 µg/mL (≈ 13.6 µM). Besides, the EC50 in data set [1] came to 12 nM.

For the compound `CCCCCCCn1cc(C(=O)O)c(=O)c2cc3c(cc21)OCO3`, the solubility at 48 h in data set [3] was found to be 54 µg/mL (≈ 163 µM). Besides, it took 11 nM to reach a half-maximal effect in data set [1] (EC50).

In turn, `CCCCCCCCn1cc(C(=O)[O-])c(=O)c2cnc(OC)cc21.[Na+]` registered a solubility in data set [2] of 27 µg/mL.

`CCCCCCCn1cc(C(=O)[O-])c(=O)c2cc3c(cc21)OCO3.[Na+]`: the solubility in data set [2] turned out to be 3.9 µg/mL. Compared with the last compound, the solubility is about 6.9-fold lower.

Take `CCCCCCCn1cc(C(=O)O)c(=O)c2cnc(OC)cc21`: a half-maximal effect in data set [1] (EC50) was put at 525 nM.

Regarding `CCCCCCn1cc(C(=O)O)c(=O)c2cc3c(cc21)OCO3`, the EC50 in data set [1] is 70 nM. This EC50 lies about 7.5-fold lower than the previous one.

Turning to `CCCCCCCCn1cc(C(=O)O)c(=O)c2cnc(OC)cc21`, in data set [3], the solubility at 48 h was 414 µg/mL (≈ 1250 µM). For the same compound, a half-maximal effect in data set [1] (EC50) was put at 68 nM.
